Results as given in patent US11053242B2, “[9,10-dimethoxy-3-(2-methylpropyl)-1H,2H,3H,4H,6H,7H,11BH-pyrido-[2,1-a]isoquinolin-2-yl]methanol and compounds, compositions and methods relating thereto” (Neurocrine Biosciences, Inc., priority 2015, dated 2021).

Key:
[1] = Metabolic pathways in human hepatocytes (fraction metabolized); type: in vitro ADME; details: LC-MS/MS of metabolites
Procedure: To investigate differences in the metabolism of Compound 1-1 and R,R,R-DHTBZ in vitro both compounds were incubated with human hepatocytes and the amounts of metabolites formed via the respective demethylation, oxidation, and glucuronidation pathways were determined by LC-MS/MS. The instrument responses for all metabolites were assumed to be approximately equal. For both compounds the percentage of overall in vitro metabolism due to the respective pathways (fraction metabolized, fm) was calculated by dividing the LC/MS peak area of the metabolite(s) formed via a given pathway by the sum of the peak areas of all metabolites monitored. […] This demethylation is believed to be catalyzed by CYP2D6.

[2] = biological target: VMAT2 (human platelet homogenate) (Homo sapiens (Human), UniProt Q05940); assay: Human VMAT2 Ki, slightly modified competition binding procedure (Table 11); details: 10 nM 3H-dihydrotetrabenazine;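 note: competition binding with 90 min incubation at 25 °C, after which filter-retained radioligand was measured by scintillation counting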
Chain of VMAT2 (human platelet homogenate) (Q05940 whole entry): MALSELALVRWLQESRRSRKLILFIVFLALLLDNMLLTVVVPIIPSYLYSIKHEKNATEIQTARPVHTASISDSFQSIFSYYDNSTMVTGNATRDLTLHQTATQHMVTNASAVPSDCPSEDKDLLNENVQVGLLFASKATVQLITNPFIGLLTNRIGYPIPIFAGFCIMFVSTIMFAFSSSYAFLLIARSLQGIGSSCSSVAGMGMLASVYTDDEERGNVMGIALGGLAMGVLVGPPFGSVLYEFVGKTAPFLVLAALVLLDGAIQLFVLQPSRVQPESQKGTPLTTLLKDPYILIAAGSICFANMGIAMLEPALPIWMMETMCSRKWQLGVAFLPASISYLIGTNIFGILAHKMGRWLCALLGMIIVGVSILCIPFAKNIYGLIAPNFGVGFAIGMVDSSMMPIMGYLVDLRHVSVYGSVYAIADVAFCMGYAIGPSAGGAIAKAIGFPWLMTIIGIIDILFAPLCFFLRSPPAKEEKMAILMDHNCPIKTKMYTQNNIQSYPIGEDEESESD

[3] = In vitro human intestinal S9 hydrolysis assay (formation of compound 1-1); details: human intestinal S9, 1 uM, 37° C., up to 60 minutes
[4] = tested on: vesicular monoamine transporter-2 (VMAT2); details: inhibition of catecholamine uptake by VMAT2, Scherman et al. 1983; cited from earlier work
[5] = biological target: VMAT2 (rat forebrain homogenate) (Rattus norvegicus (Rat), UniProt Q01827); details: radioligand of the VMAT2 binding assay; cited from earlier work
Chain of VMAT2 (rat forebrain homogenate) (Q01827 whole entry): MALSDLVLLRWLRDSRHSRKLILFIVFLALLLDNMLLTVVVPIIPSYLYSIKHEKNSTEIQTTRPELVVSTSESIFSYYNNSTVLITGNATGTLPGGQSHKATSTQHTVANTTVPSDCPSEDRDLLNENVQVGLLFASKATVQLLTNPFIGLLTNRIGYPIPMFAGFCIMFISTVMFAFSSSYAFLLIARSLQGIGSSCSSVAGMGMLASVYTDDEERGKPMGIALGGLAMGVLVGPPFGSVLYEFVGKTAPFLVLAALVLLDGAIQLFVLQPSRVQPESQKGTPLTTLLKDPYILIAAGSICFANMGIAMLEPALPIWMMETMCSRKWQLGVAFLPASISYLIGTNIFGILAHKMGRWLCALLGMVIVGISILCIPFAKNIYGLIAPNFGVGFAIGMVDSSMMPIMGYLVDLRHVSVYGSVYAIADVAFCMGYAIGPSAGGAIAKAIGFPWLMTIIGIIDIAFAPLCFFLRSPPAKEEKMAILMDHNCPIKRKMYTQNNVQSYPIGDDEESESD

## COc1cc2c(cc1OC)[C@H]1C[C@@H](CO)[C@H](CC(C)C)CN1CC2 [Compound 1-1, [(2R,3S,11bR)-9,10-Dimethoxy-3-(2-methylpropyl)-1H,2H,3H,4H,6H,7H,11bH-pyrido[2,1-a]isoquinolin-2-yl]methanol]
[1]
  primary metabolic pathway: primarily metabolized by glucuronidation

## COc1cc2c(cc1OC)[C@H]1C[C@@H](COC(=O)N3CCN[C@H](C)C3)[C@H](CC(C)C)CN1CC2 [Compound 6-13, [(2R,3S,11bR)-9,10-dimethoxy-3-(2-methylpropyl)-1H,2H,3H,4H,6H,7H,11bH-pyrido[2,1-a]isoquinolin-2-yl]methyl (3R)-3-methylpiperazine-1-carboxylate]
[2]
  Ki: < 10 nM
[3]
  S9 Assay (ability to form compound 1-1): +

## COc1cc2c(cc1OC)C1CC(O)C(CC(C)C)CN1CC2 [R,R,R-DHTBZ, 3-isobutyl-9,10-dimethoxy-1,3,4,6,7,11b-hexahydro-2H-pyrido[2,1-a]isoquinolin-2-ol, reference compound]
[1]
  primary metabolic pathway: primarily metabolized by demethylation

## ^3H-dihydrotetrabenezine
[5]
  Kd: 2.6 nM
